For data set [1], the system named is CHO-K1 cells. Put plainly: WST-8 Cell Viability Assay. The class given is cell-based, Chinese Hamster. The procedure:
Cytotoxicity of unlabeled peptides and dye-labeled peptides was evaluated by the WST-8 assay. CHO-K1 cell proliferation was evaluated by plating 5 × 10^3 cells per well in 96-well plates. After 24 hours in serum-containing DMEM-F12 medium, the cells were incubated with a serum-free DMEM-F12 solution of unlabeled or dye-labeled peptides for 2 hours at 37 °C. After the incubation, the medium was removed, cells were washed with PBS 1X and incubated for 2 hours at 37 °C with 100 μl of a 10%-solution of WST-8 dissolved in serum-containing DMEM-F12. Absorbance at 450 nm was measured using a multiplate reader (Microplate Reader, GloMax®-Discover and Explorer Systems, Promega). Cell viability was quantitatively determined by comparing peptide-treated cells with untreated cells (as a reference of 100% viability) and cells treated with dimethyl sulfoxide (DMSO) 20% v/v. Reported data represent the average of three independent experiments, in which three wells for each concentration were measured. Error bars represent the standard errors.
A general note: Tetrazolium assays rely on reduction of a dye to a coloured formazan, in cell work by metabolically active cells.

The nature of data set [2]: UV absorption of peptide in water after addition from DMSO stock (precipitation). Type of data set: physicochemical. The settings on record: 2μM in water, added directly from DMSO stock, UV absorption versus addition from water solution; consistent with a precipitate. The procedure:
Fig S5: UV absorption spectra of TP2 at 2μM concentration in water, measured upon addition of the peptide directly from DMSO stock solution (blue trace) or from a water solution (black trace). Only this latter procedure yields the expected absorption spectrum (indicated by the dashed black line). […] This in turn is consistent with the formation of a stabilized phase that is not diffusing in solution, but likely under the form of a precipitate.

Data set [3] in a line: Dynamic Light Scattering of peptide aggregates. The settings on record: water solutions at 100 μM (above CMC), 25 °C, scattering angle 90°, average of five consecutive measurements. The class given is physicochemical. The protocol:
DLS measurements were performed at 25 °C in a 50-μL quartz cuvette on a Zetasizernano ZS DLS (Malvern Instrument) following the manufacturer’s instructions. Water solutions of labeled-peptide at 100 μM were analyzed with a single scattering angle of 90°. Each value reported is the average of five consecutive measurements.

The nature of data set [4]: Critical Micelle Concentration by pyrene 1:3 ratio method. The settings on record: water solutions, 25 °C, 5 × 10^−7 μM pyrene, excitation 335 nm, I1 373 nm / I3 385 nm, 0.5-100 μM peptide, center of Boltzmann sigmoid fit. Type of data set: physicochemical. The procedure:
All the peptide solutions were always freshly prepared and dye-labeled peptides were quantified by UV-Vis absorbance. Unlabeled peptides were quantified by amino acidic digestion obtained by the mineralization of a known amount of peptide (5–50 μg) dissolved in 200–500 μl of HCl 6 M, with the following conditions: temperature: 170 °C; time: 20 minutes. Finally, derivatized amino acids were detected by RP-HPLC (Jupiter 4 μm Proteo 90 Å column (250 × 4.6 mm; Phenomenex) with these solvents: water:TFA 100:0.01 v/v (eluent A)/acetonitrile:water:TFA 95:5:0.01 v/v (eluent B), flux 1 ml/min, and their identity was confirmed by electrospray mass spectroscopy. CMC values of peptide and labeled-peptide systems were then determined by the pyrene 1:3 ratio method. Fluorescence emission spectra at 25 °C of unlabeled and labeled peptide water solutions containing 5 × 10^−7 μM pyrene were recorded using an excitation wavelength of 335 nm. The intensities I1 and I3 were measured at the wavelengths corresponding to the first and third vibronic bands of pyrene (373 nm, emission range: 368–378 nm, and 385 nm, emission range: 380–390 nm, respectively). According to literature, the plot of the pyrene 1:3 ratio index as a function of the concentration of the surfactant can be described by a decreasing sigmoid of the Boltzmann type and indicates the transition from the monomeric to the aggregated form of the peptide. Experimental raw data were fitted using the OriginPro8 software, and the center of the sigmoid is identified as the characteristic CMC.

In data set [5] the test system is CHO-K1 cells. In words: Cell uptake / translocation by confocal fluorescence microscopy. The settings on record: all concentrations tested (0.5-10 μM), serum-free medium, peptide from water stock, 20 min at 37 °C. The class given is cell-based, Chinese Hamster. The procedure:
Homogeneous peptide solutions used for translocation experiments were always freshly prepared. Purified dye-labeled peptides were pre-dissolved in 100–200 μl of water and sonicated for 15 minutes at 25 °C. Then they were quantified by UV-Vis absorbance (concentration ranging between 100 and 200 μM; for ATTO 425 Maleimide: ε436(water) = 45000 cm^−1M^−1, for TAMRA: ε543(water) = 80000 cm^−1M^−1). An appropriate amount from this stock water-solution was diluted in 200–300 μl of serum-free DMEM F-12 growth medium and then administered to cells. Ionic strength was adjusted to physiological values adding the required amount of 10X PBS buffer.
Chinese Hamster Ovary (CHO-K1) and PgsA-745 cells were purchased from ATCC (reference numbers: CCL-61 and CRL-2242, respectively) and grown in DMEM F-12 medium supplemented with 10% of Fetal Bovine Serum (FBS) at 37 °C with 5% CO2, according to manufacturer’s instructions. […]
Confocal imaging experiments were performed with a Leica TCS SP5 SMD inverted confocal microscope (Leica Microsystems) interfaced with a diode laser (Picoquant) for excitation at 405 nm. […] All images and videos collected were analyzed by ImageJ software version 1.440 (NIH Image; http://rsbweb.nih.gov/ij/). […] RICS correlation function was calculated by the SimFCS software, developed at the Laboratory for Fluorescence Dynamics (www.lfd.uci.edu). […]

“And” between values parts separate entries of the source, which are not always exact repeats. Equal entries are not always repeated. Where a SMILES comes first, the peptide text is derived from it. The star is where a group is joined. X2 = CN(C)c1ccc2c(-c3ccc(N4C(=O)CC(*)C4=O)cc3C(=O)[O-])c3ccc(=[N+](C)C)cc-3oc2c1; X1 = CCOC(=O)c1cc2cc3c(cc2oc1=O)N(CC(=O)NCCN1C(=O)CC(*)C1=O)C(C)(C)CC3C

The term cell viability denotes the share of living cells, or the viability signal relative to a control. Read a low cell viability as more harm to the cells. Regarding `CCOC(=O)c1cc2cc3c(cc2oc1=O)N(CC(=O)NCCN1C(=O)CC(SC[C@H](NC(=O)CNC(=O)[C@H](CCCNC(=N)N)NC(=O)[C@H](CC(C)C)NC(=O)[C@H](CC(C)C)NC(=O)[C@H](CCCNC(=N)N)NC(=O)[C@H](CC(C)C)NC(=O)[C@H](Cc2ccc(O)cc2)NC(=O)[C@@H](NC(=O)[C@H](CC(C)C)NC(=O)[C@@H]2CCCN2)[C@@H](C)CC)C(=O)O)C1=O)C(C)(C)CC3C` (stereo partly drawn) [TM9-ATTO 425] (H-PLIYLRLLRGC(X1)-OH), the cell viability in data set [1] (20 µM) came out at 60%; in data set [1] (30 µM) it was 40%.

On to PLIYLRLLR-G-QF [TP2], for which the “peptide apparently lost upon direct addition from DMSO to water” value in data set [2] is recorded as around 60%. In data set [3], the “hydrodynamic radius (RH) from DLS” value turned out to be 163 ± 6 nm. For the same compound, the “Critical Micelle Concentration (CMC)” value in data set [4] stood at 1.0 ± 0.2 µM.

As to `CN(C)c1ccc2c(-c3ccc(N4C(=O)C=CC4=O)cc3C(=O)[O-])c3ccc(N(C)C)cc3[o+]c2c1` [TAMRA, Tetramethylrhodamine-5-maleimide], in data set [4], the “Critical Micelle Concentration (CMC)” value is ~80 µM and 80 ± 14 µM.

Consider `CC[C@H](C)[C@H](NC(=O)[C@H](CC(C)C)NC(=O)[C@@H]1CCCN1)C(=O)N[C@@H](Cc1ccc(O)cc1)C(=O)N[C@@H](CC(C)C)C(=O)N[C@@H](CCCNC(=N)N)C(=O)N[C@@H](CC(C)C)C(=O)N[C@@H](CC(C)C)C(=O)N[C@@H](CCCNC(=N)N)C(=O)NCC(=O)N[C@@H](CSC1CC(=O)N(c2ccc(-c3c4ccc(=[N+](C)C)cc-4oc4cc(N(C)C)ccc34)c(C(=O)[O-])c2)C1=O)C(=O)O` (stereo partly drawn) [TM9-TAMRA] (H-PLIYLRLLRGC(X2)-OH; N-terminus and C-terminus assumed), for which the “hydrodynamic radius (RH) from DLS” value in data set [3] was determined as 135 ± 14 nm. For the same compound, in data set [5], the “uptake mechanism (confocal imaging)” value is reported as “only endocytosis is present”. Also, the “Critical Micelle Concentration (CMC)” value in data set [4] was 3.8 ± 0.5 µM.

Source of the values: paper PMC4645181, “Spontaneous membrane-translocating peptides: influence of peptide self-aggregation and cargo polarity” (Scientific Reports, 2015).
